Experimental data: patent publication US10485235B2, “Aryloxypyrimidinyl ethers as herbicides” (FMC Corporation, priority 2015, dated 2019)

Columns and labels:
Format in all cases: in vivo
[1] = system: ducksalad (Heteranthera limosa); assay: Test B flooded paddy test, ducksalad
How it was run: (§1)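 Visual ratings, 0 = no effect to 100 = complete control, versus controls after 13 to 15 days in greenhouse. Test compounds were added to paddy water kept 3 cm over the soil surface, on plants at 2-leaf stage.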

[2] = system: galium (catchweed bedstraw, Galium aparine); assay: Test A postemergence, galium; details: for Plant response rating, Galium: postemergence, 0 to 100 scale, 0 is no effect, 100 is complete control, approximately 10 days
How it was run: (§2)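 Pre- and postemergence greenhouse screen in loam–sand soil. Test chemicals were delivered in a non-phytotoxic solvent with surfactant, preemergence as a directed spray onto seeded soil and postemergence onto 2–10 cm seedlings. Injury was judged by eye after ~10 days on a 0–100 scale.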

[3] = system: pigweed (Amaranthus retroflexus); assay: Test A postemergence, pigweed; details: for Plant response rating, Pigweed: postemergence, 0 to 100 scale, 0 is no effect, 100 is complete control, approximately 10 days
How it was run: as §2

[4] = system: rice (Oryza sativa); assay: Test B flooded paddy test, rice
How it was run: as §1

[5] = system: foxtail, giant (giant foxtail, Setaria faberii); assay: Test A postemergence, giant foxtail; details: for Plant response rating, Foxtail, Giant: postemergence, 0 to 100 scale, 0 is no effect, 100 is complete control, approximately 10 days
How it was run: as §2

[6] = system: ragweed (common ragweed, Ambrosia elatior); assay: Test A postemergence, ragweed; details: for Plant response rating, Ragweed: postemergence, 0 to 100 scale, 0 is no effect, 100 is complete control, approximately 10 days
How it was run: as §2

[7] = system: ryegrass, Italian (Italian ryegrass, Lolium multiflorum); assay: Test A postemergence, Italian ryegrass; details: for Plant response rating, Ryegrass, Italian: postemergence, 0 to 100 scale, 0 is no effect, 100 is complete control, approximately 10 days
How it was run: as §2

[8] = system: kochia (Kochia scoparia); assay: Test A postemergence, kochia; details: for Plant response rating, Kochia: postemergence, 0 to 100 scale, 0 is no effect, 100 is complete control, approximately 10 days
How it was run: as §2

[9] = system: blackgrass (Alopecurus myosuroides); assay: Test A postemergence, blackgrass; details: for Plant response rating, Blackgrass: postemergence, 0 to 100 scale, 0 is no effect, 100 is complete control, approximately 10 days
How it was run: as §2

[10] = system: sedge, umbrella (small-flower umbrella sedge, Cyperus difformis); assay: Test B flooded paddy test, umbrella sedge
How it was run: as §1

[11] = system: barnyardgrass (Echinochloa crus-galli); assay: Test B flooded paddy test, barnyardgrass
How it was run: as §1

[12] = system: ragweed (common ragweed, Ambrosia elatior); assay: Test A preemergence, ragweed; details: for Plant response rating, Ragweed: Preemergence, 0 to 100 scale (0 no effect, 100 complete control)
How it was run: as §2

[13] = system: kochia (Kochia scoparia); assay: Test A preemergence, kochia; details: for Plant response rating, Kochia: Preemergence, 0 to 100 scale (0 no effect, 100 complete control)
How it was run: as §2

[14] = system: ryegrass, Italian (Italian ryegrass, Lolium multiflorum); assay: Test A preemergence, Italian ryegrass; details: for Plant response rating, Ryegrass, Italian: Preemergence, 0 to 100 scale (0 no effect, 100 complete control)
How it was run: as §2

[15] = system: barnyardgrass (Echinochloa crus-galli); assay: Test A postemergence, barnyardgrass; details: for Plant response rating, Barnyardgrass: postemergence, 0 to 100 scale, 0 is no effect, 100 is complete control, approximately 10 days
How it was run: as §2

[16] = system: corn (Zea mays); assay: Test A postemergence, corn; details: for Plant response rating, Corn: postemergence, 0 to 100 scale, 0 is no effect, 100 is complete control, approximately 10 days
How it was run: as §2

[17] = system: wheat (Triticum aestivum); assay: Test A postemergence, wheat; details: for Plant response rating, Wheat: postemergence, 0 to 100 scale, 0 is no effect, 100 is complete control, approximately 10 days
How it was run: as §2

[18] = system: foxtail, giant (giant foxtail, Setaria faberii); assay: Test A preemergence, giant foxtail; details: for Plant response rating, Foxtail, Giant: Preemergence, 0 to 100 scale (0 no effect, 100 complete control)
How it was run: as §2

[19] = system: pigweed (Amaranthus retroflexus); assay: Test A preemergence, pigweed; details: for Plant response rating, Pigweed: Preemergence, 0 to 100 scale (0 no effect, 100 complete control)
How it was run: as §2

[20] = system: barnyardgrass (Echinochloa crus-galli); assay: Test A preemergence, barnyardgrass; details: for Plant response rating, Barnyardgrass: Preemergence, 0 to 100 scale (0 no effect, 100 complete control)
How it was run: as §2

[21] = 250 g ai/ha, Flood, visual rating after 13 to 15 days, scale 0 to 100, 0 is no effect, 100 is complete control
[22] = Galium, post-emergence, 240 h, read-out: Plant response rating, Galium
[23] = Amaranthus retroflexus, post-emergence, 240 h, read-out: Plant response rating, Pigweed
[24] = Setaria faberi, post-emergence, 240 h, read-out: Plant response rating, Foxtail, Giant
[25] = Ambrosia artemisiifolia, post-emergence, 240 h, read-out: Plant response rating, Ragweed
[26] = Lolium multiflorum, post-emergence, 240 h, read-out: Plant response rating, Ryegrass, Italian
[27] = Bassia scoparia, post-emergence, 240 h, read-out: Plant response rating, Kochia
[28] = Alopecurus myosuroides, post-emergence, 240 h, read-out: Plant response rating, Blackgrass
[29] = Ambrosia artemisiifolia, pre-emergence, 240 h, read-out: Plant response rating, Ragweed
[30] = Bassia scoparia, pre-emergence, 240 h, read-out: Plant response rating, Kochia
[31] = Lolium multiflorum, pre-emergence, 240 h, read-out: Plant response rating, Ryegrass, Italian
[32] = Echinochloa crus-galli, post-emergence, 240 h, read-out: Plant response rating, Barnyardgrass
[33] = Zea mays, post-emergence, 240 h, read-out: Plant response rating, Corn
[34] = Triticum aestivum, post-emergence, 240 h, read-out: Plant response rating, Wheat
[35] = Setaria faberi, pre-emergence, 240 h, read-out: Plant response rating, Foxtail, Giant
[36] = Amaranthus retroflexus, pre-emergence, 240 h, read-out: Plant response rating, Pigweed
[37] = Echinochloa crus-galli, pre-emergence, 240 h, read-out: Plant response rating, Barnyardgrass

CCCCCOc1c(C#N)cccc1Oc1ncc(Cl)cn1 [Compound 51]
Plant response rating, Ducksalad [1, 21]: 80 | Plant response rating, Galium ([2]; 31 g ai/ha): 40 | Plant response rating, Galium ([2]; 125 g ai/ha): 70 | Plant response rating, Pigweed ([3]; 31 g ai/ha): 10 | Plant response rating, Pigweed ([3]; 125 g ai/ha): 40 | Plant response rating, Rice [4, 21]: 0 | Plant response rating, Foxtail, Giant ([5]; 31 g ai/ha): 10 | Plant response rating, Foxtail, Giant ([5]; 125 g ai/ha): 40 | Plant response rating, Ragweed ([6]; 31 g ai/ha): 0 | Plant response rating, Ragweed ([6]; 125 g ai/ha): 10 | Plant response rating, Ryegrass, Italian ([7]; 31 g ai/ha): 0 | Plant response rating, Ryegrass, Italian ([7]; 125 g ai/ha): 10 | Plant response rating, Kochia ([8]; 31 g ai/ha): 40 | Plant response rating, Kochia ([8]; 125 g ai/ha): 70 | Plant response rating, Blackgrass ([9]; 31 g ai/ha): 0 | Plant response rating, Blackgrass ([9]; 125 g ai/ha): 20 | Plant response rating, Sedge, Umbrella [10, 21]: 95 | Plant response rating, Barnyardgrass [11, 21]: 0 | Plant response rating, Ragweed ([12]; 31 g ai/ha): 0 | Plant response rating, Ragweed ([12]; 125 g ai/ha): 0 | Plant response rating, Kochia ([13]; 31 g ai/ha): 0 | Plant response rating, Kochia ([13]; 125 g ai/ha): 40 | Plant response rating, Ryegrass, Italian ([14]; 31 g ai/ha): 0 | Plant response rating, Ryegrass, Italian ([14]; 125 g ai/ha): 0 | Plant response rating, Barnyardgrass ([15]; 31 g ai/ha): 10 | Plant response rating, Barnyardgrass ([15]; 125 g ai/ha): 30 | Plant response rating, Corn ([16]; 31 g ai/ha): 10 | Plant response rating, Corn ([16]; 125 g ai/ha): 20 | Plant response rating, Wheat ([17]; 31 g ai/ha): 0 | Plant response rating, Wheat ([17]; 125 g ai/ha): 0 | Plant response rating, Foxtail, Giant ([18]; 31 g ai/ha): 40 | Plant response rating, Foxtail, Giant ([18]; 125 g ai/ha): 100 | Plant response rating, Pigweed ([19]; 31 g ai/ha): 10 | Plant response rating, Pigweed ([19]; 125 g ai/ha): 50 | Plant response rating, Barnyardgrass ([20]; 31 g ai/ha): 10 | Plant response rating, Barnyardgrass ([20]; 125 g ai/ha): 40

FC(F)(F)C(F)(F)C(F)(F)COc1c(Br)cccc1Oc1ncc(Cl)cn1 [Compound 52, 2-[3-bromo-2-(2,2,3,3,4,4,4-heptafluorobutoxy)phenoxy]-5-chloropyrimidine]
pest or weed control at 250 g/ha ([1]; Heteranthera limosa, read-out: Plant response rating, Ducksalad): 75% | pest or weed control at 125 g/ha [2, 22]: 40% | pest or weed control at 500 g/ha [2, 22]: 90% | pest or weed control at 125 g/ha [3, 23]: 80% | pest or weed control at 500 g/ha [3, 23]: 100% | plant injury at 250 g/ha ([4]; Oryza sativa, read-out: Plant response rating, Rice): 15% | pest or weed control at 125 g/ha [5, 24]: 20% | pest or weed control at 500 g/ha [5, 24]: 80% | pest or weed control at 125 g/ha [6, 25]: 20% | pest or weed control at 500 g/ha [6, 25]: 30% | pest or weed control at 125 g/ha [7, 26]: 20% | pest or weed control at 500 g/ha [7, 26]: 40% | pest or weed control at 125 g/ha [8, 27]: 70% | pest or weed control at 500 g/ha [8, 27]: 90% | pest or weed control at 125 g/ha [9, 28]: 10% | pest or weed control at 500 g/ha [9, 28]: 20% | pest or weed control at 250 g/ha ([10]; Cyperus difformis, read-out: Plant response rating, Sedge, Umbrella): 90% | pest or weed control at 250 g/ha ([11]; Echinochloa crus-galli, read-out: Plant response rating, Barnyardgrass): 0% | pest or weed control at 125 g/ha [12, 29]: 0% | pest or weed control at 500 g/ha [12, 29]: 0% | pest or weed control at 125 g/ha [13, 30]: 0% | pest or weed control at 500 g/ha [13, 30]: 40% | pest or weed control at 125 g/ha [14, 31]: 10% | pest or weed control at 500 g/ha [14, 31]: 50% | pest or weed control at 125 g/ha [15, 32]: 10% | pest or weed control at 500 g/ha [15, 32]: 80% | plant injury at 125 g/ha [16, 33]: 10% | plant injury at 500 g/ha [16, 33]: 30% | plant injury at 125 g/ha [17, 34]: 0% | plant injury at 500 g/ha [17, 34]: 20% | pest or weed control at 125 g/ha [18, 35]: 80% | pest or weed control at 500 g/ha [18, 35]: 100% | pest or weed control at 125 g/ha [19, 36]: 70% | pest or weed control at 500 g/ha [19, 36]: 100% | pest or weed control at 125 g/ha [20, 37]: 30% | pest or weed control at 500 g/ha [20, 37]: 50%
